According to patent US20090105225A1, “2-Substituted 4-Benzylphthalazinone Derivatives as Histamine H1 and H3 Antagonists” (GLAXO GROUP LIMITED, priority 2006, published 2009):
Structures can show the parent of a compound that is named as a salt.

Key:
[1] = molecular target: T1, human H1 receptor (Homo sapiens, UniProt P35367); assay: Histamine H1 functional antagonist assay (FLIPR): determination of antagonist pA2 and duration; type: cell-based; details: at one or more time points; compared with azelastine
T1 construct: expressed in transfected cells
Method: The human H1 receptor is cloned using known procedures described in the literature [Biochem. Biophys. Res. Commun., 201(2):894 (1994)]. Chinese hamster ovary (CHO) cells stably expressing the human H1 receptor are generated according to known procedures described in the literature [Br. J. Pharmacol., 117(6):1071 (1996)].
The histamine H1 receptor expressing CHO cells are seeded into non-coated black-walled clear bottom 96-well tissue culture plates as described above.
Following overnight culture, growth medium is removed from each well, washed with 200 μl phosphate buffered saline (PBS) and is replaced with 50 μl loading dye (250 μM Brilliant Black, 1 μM Fluo-4 diluted in Tyrodes buffer+probenecid (145 mM NaCl, 2.5 mM KCl, 10 mM HEPES, 10 mM D-glucose, 1.2 mM MgCl2, 1.5 mM CaCl2, 2.5 mM probenecid, pH adjusted to 7.40 with NaOH 1.0 M)). Cells are incubated for 45 min at 37° C. The loading buffer is removed and the cells are washed as above, and 90 μl of Tyrodes buffer+probenecid is added to each well. 10 μl of test compound, diluted to the required concentration in Tyrodes buffer+probenecid (or 10 μl Tyrodes buffer+probenecid as a control) is added to each well and the plate is incubated for 30 min at 37° C., 5% CO2.
The plates are then placed into a FLIPR™ (Molecular Devices, UK) to monitor cell fluorescence (λex=488 nm, λEM=540 nm) in the manner described in Sullivan et al., (In: Lambert D G (ed.), Calcium Signaling Protocols, New Jersey: Humana Press, 1999, 125-136) before and after the addition of 50 μl histamine over a concentration range of 1 mM-0.1 nM. The resultant concentration response curves are analysed by non-linear regression using a standard four parameter logistic equation to determine the histamine EC50, the concentration of histamine required to produce a response of 50% of the maximum response to histamine. The antagonist pA2 is calculated using the following standard equation: pA2=log(DR−1)−log [B] where DR=dose ratio, defined as EC50 antagonist-treated/EC50 control and [B]=concentration of antagonist.
To determine the antagonist duration, cells are cultured overnight in non-coated black-walled clear bottom 96-well tissue culture plates, are washed with PBS and are incubated with a concentration of antagonist chosen to give an approximate DR in the range 30-300. Following the 30 min antagonist incubation period, the cells are washed two or three times with 200 μl of PBS and then 100 μl Tyrodes buffer is added to each well to initiate antagonist dissociation. Following incubation for predetermined times, typically 30-270 min at 37° C., the cells are then washed again with 200 μl PBS and are incubated with 100 μl Tyrodes buffer containing Brilliant Black, probenecid and Fluo-4 for 45 min at 37° C., as described above. After this period, the cells are challenged with histamine in the FLIPR™ as described above. The dose ratio at each time point is used to determine the fractional H1 receptor occupancy by the following equation: fractional receptor occupancy=(DR-1)/DR. The decrease in receptor occupancy over time approximates to a straight line and is analysed by linear regression. The slope of this straight line fit is used as an index of the dissociation rate of the antagonist. The dose ratios for antagonist treated cells and for antagonist treated and washed cells at each time point are used to calculate a relative dose ratio (rel DR) which is also used as an index of antagonist duration. Antagonists with long duration of action produce rel DR values close to 1, and antagonists with short duration of action produce rel DR values that approaches the dose ratio value obtained for antagonist treatment alone.

[2] = CNS penetration (intravenous bolus or steady-state infusion, brain and blood concentration); type: in vivo, rat; details: compared with azelastine
Method: Compounds are dosed intravenously at a nominal dose level of 1 mg/kg to male CD Sprague Dawley rats. Compounds are formulated in 5% DMSO/45% PEG200/50% water. Blood samples are taken under terminal anaesthesia with isoflurane at 5 min post-dose and the brains are also removed for assessment of brain penetration. Blood samples are taken directly into heparinised tubes. Blood samples are prepared for analysis using protein precipitation and brain samples are prepared using extraction of drug from brain by homogenisation and subsequent protein precipitation. The concentration of parent drug in blood and brain extracts is determined by quantitative LC-MS/MS analysis using compound-specific mass transitions.
A loading dose of the compounds is given to male CD Sprague Dawley rats at a nominal dose level of 0.4 mg/kg. The compounds are then infused intravenously for 4 h at a nominal dose level of 0.1 mg/kg/h. Compounds are formulated in 2% DMSO/30% PEG200/68% water. Serial or terminal blood samples are taken at 0.5, 1.5, 2.5, 3, 3.5 and 4 h post dose. The final blood sample is collected under terminal anaesthesia with isoflurane and the brains are also removed for assessment of brain penetration. Blood samples are taken directly into heparinised tubes. Blood samples are prepared for analysis using protein precipitation and brain samples are prepared using extraction of drug from brain by homogenisation and subsequent protein precipitation. The concentration of parent drug in blood and brain extracts is determined by quantitative LC-MS/MS analysis using compound-specific mass transitions.

[3] = system: histamine-induced congestion; assay: Intranasal histamine challenge, whole body plethysmography; type: in vivo; details: 24 hours after dosing; compared to azelastine; Guinea Pig whole body plethysmography model (FIG. 3)
Method: Female Dunkin-Hartley guinea pigs 150-250 g are sensitised twice daily for 5 days (week 1) with ovalbumin (OVA) and aluminium hydroxide (Al(OH)3 or Alum) in physiological saline, 25 μl/nostril. Solution is made up at 20 μg/ml OVA, 180 mg/ml Alum. During weeks 2 and 3, animals receive 25 μl/nostril of OVA (5 mg/ml) once daily. During Week 4 guinea pigs will be entered into study but are continually sensitized as per weeks 2 and 3 until the day before dosing with compound or vehicle.
Pretreatment with test compound is performed at various times prior to histamine challenge. Efficacy dose-response curves are determined 1 h after dosing whereas duration of action is studied up to 7 days post dose. Test compounds are formulated as solutions in 0.9% sterile saline or suspensions in 0.9% sterile saline/tween80. […]
After the stipulated pre-dose time has been reached, guinea pigs are re-anaesthetised with isoflurane and dosed with either 15 mM histamine or phosphate-buffered saline (PBS), (25 μl per nostril). […] Data are analysed using ANOVA with post-hoc Fishers LSD test (general linear models, Statistica®) and finally Hochberg adjustment. Inhibition of histamine-induced congestion is determined by statistically significant differences between the mean responses of compound pre-treated groups compared to the vehicle pre-treated, histamine-challenged group.

T1 sequence (P35367 whole entry): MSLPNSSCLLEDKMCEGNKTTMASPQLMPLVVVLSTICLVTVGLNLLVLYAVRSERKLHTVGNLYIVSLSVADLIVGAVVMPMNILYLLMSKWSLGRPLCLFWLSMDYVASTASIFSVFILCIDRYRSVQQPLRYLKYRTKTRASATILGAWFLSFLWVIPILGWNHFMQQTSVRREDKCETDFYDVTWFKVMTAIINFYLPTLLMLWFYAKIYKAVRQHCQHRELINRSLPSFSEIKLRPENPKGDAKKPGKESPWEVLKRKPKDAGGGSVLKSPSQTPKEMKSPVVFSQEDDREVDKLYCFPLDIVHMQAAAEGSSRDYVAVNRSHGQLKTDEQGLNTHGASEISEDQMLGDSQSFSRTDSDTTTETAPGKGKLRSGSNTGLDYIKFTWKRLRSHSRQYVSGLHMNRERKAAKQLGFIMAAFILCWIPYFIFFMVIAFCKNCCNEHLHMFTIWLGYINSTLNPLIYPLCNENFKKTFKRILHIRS

SMILES | duration of action in the histamine H1 functional antagonist assay [1] | CNS penetration [2] | inhibition of nasal congestion [3]
O=c1c2ccncc2c(Cc2ccc(Cl)cc2)nn1C[C@H]1CCCN1CCCCc1ccc(OCCCN2CCCCCC2)cc1 [Example 23] | longer duration of action than azelastine | – | –
O=C(NCCN1CCCC(n2nc(Cc3ccc(Cl)cc3)c3ccccc3c2=O)CC1)c1ccc2c(c1)CCN(C1CCC1)CC2 (centres unmarked) [Example 18, N-(2-{4-[4-[(4-Chlorophenyl)methyl]-1-oxo-2(1H)-phthalazinyl]hexahydro-1H-azepin-1-yl}ethyl)-3-cyclobutyl-2,3,4,5-tetrahydro-1H-3-benzazepine-7-carboxamide Diformate Salt] | longer duration of action than azelastine | – | –
COc1ccc(Cc2nn(C[C@H]3CCCN3CCCCc3ccc(OCCCN4CCCCCC4)cc3)c(=O)c3ccccc23)cc1 [Example 7, 2-({(2R)-1-[4-(4-{[3-(Hexahydro-1H-azepin-1-yl)propyl]oxy}phenyl)butyl]-2-pyrrolidinyl}methyl)-4-{[4-(methyloxy)phenyl]methyl}-1(2H)-phthalazinone Diformate] | longer duration of action than azelastine | lower CNS penetration than azelastine | –
O=c1c2ccccc2c(Cc2ccc(O)cc2)nn1C[C@H]1CCCN1CCCCc1ccc(OCCCN2CCCCCC2)cc1 [Example 8, 2-({(2R)-1-[4-(4-{[3-(Hexahydro-1H-azepin-1-yl)propyl]oxy}phenyl)butyl]-2-pyrrolidinyl}methyl)-4-[(4-hydroxyphenyl)methyl]-1(2H)-phthalazinone] | longer duration of action than azelastine | – | –
O=c1c2ccccc2c(Cc2ccc(Cl)cc2)nn1C[C@H]1CCCN1CCCCc1ccc(OCCCN2CCCCCC2)cc1 [Example 24, 4-[(4-Chlorophenyl)methyl]-2-({(2R)-1-[4-(4-{[3-(hexahydro-1H-azepin-1-yl)propyl]oxy}phenyl)butyl]-2-pyrrolidinyl}methyl)-1(2H)-phthalazinone Free Base] | significantly longer duration of action than azelastine | lower CNS penetration than azelastine | statistically significant inhibition of nasal congestion
O=c1c2ccccc2c(Cc2ccc(Cl)cc2)nn1C[C@H]1CCCN1CCCOc1ccc2c(c1)CCN(C1CCC1)CC2 [Example 15, 4-[(4-Chlorophenyl)methyl]-2-[((2R)-1-{3-[(3-cyclobutyl-2,3,4,5-tetrahydro-1H-3-benzazepin-7-yl)oxy]propyl}-2-pyrrolidinyl)methyl]-1(2H)-phthalazinone] | longer duration of action than azelastine | – | –
O=c1c2ccccc2c(Cc2ccc(Cl)cc2)nn1C1CCCN(CCCOc2ccc3c(c2)CCN(C2CCC2)CC3)CC1 (centres unmarked) [Example 16, 4-[(4-Chlorophenyl)methyl]-2-(1-{3-[(3-cyclobutyl-2,3,4,5-tetrahydro-1H-3-benzazepin-7-yl)oxy]propyl}hexahydro-1H-azepin-4-yl)-1(2H)-phthalazinone Formate Salt] | – | comparable CNS penetration to azelastine | –
O=c1c2ccccc2c(Cc2ccc(F)cc2)nn1C[C@H]1CCCN1CCCCc1ccc(OCCCN2CCCCCC2)cc1 [Example 9, 4-[(4-Fluorophenyl)methyl]-2-({(2R)-1-[4-(4-{[3-(hexahydro-1H-azepin-1-yl)propyl]oxy}phenyl)butyl]-2-pyrrolidinyl}methyl)-1(2H)-phthalazinone] | longer duration of action than azelastine | – | –
